biological target: T1, active p38 alpha enzyme (Upstate Biotechnology) (Homo sapiens, UniProt Q16539); assay: p38α biochemical assay (ATP turnover, luminescent detection, Cambrex PKlight); settings: p38α kinase; Table 1 Biological Activity
T1 construct: purchased Upstate Biotechnology
In short: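 p38α + MapkapK2 (whole protein substrate) + 1.4 uM ATP final; Tris/MOPS buffer with MgCl2, CaCl2, EGTA, EDTA, glycerol, β-ME, BSA; 2 h at 30C; luminescent detection of remaining ATP.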

T1 sequence (Q16539 whole entry): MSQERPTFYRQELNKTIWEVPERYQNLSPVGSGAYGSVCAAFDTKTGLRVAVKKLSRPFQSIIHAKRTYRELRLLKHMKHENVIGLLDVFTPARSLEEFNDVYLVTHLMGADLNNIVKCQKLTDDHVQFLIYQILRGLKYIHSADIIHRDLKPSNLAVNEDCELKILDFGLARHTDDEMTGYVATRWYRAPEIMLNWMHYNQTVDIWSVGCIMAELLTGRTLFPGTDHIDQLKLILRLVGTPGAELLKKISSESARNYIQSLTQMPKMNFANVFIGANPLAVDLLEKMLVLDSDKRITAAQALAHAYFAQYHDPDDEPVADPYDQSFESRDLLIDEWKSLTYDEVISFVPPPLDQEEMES

| Compound | IC50 [nM] |
| --- | --- |
| CC(C)NC(=O)c1csc(-c2c(-c3ccc(F)cc3)noc2CN2CCN(c3ccc([N+](=O)[O-])cc3)CC2)n1 [Example 1608] | > 1000 |
| CC(C)NC(=O)c1csc(-c2c(-c3ccc(F)cc3)noc2CN(C)Cc2cccc3ccccc23)n1 [Example 1609] | > 1000 |
| Cc1ccc(Cl)cc1N1CCN(Cc2onc(-c3ccc(F)cc3)c2-c2nc(C(=O)NC(C)C)cs2)CC1 [Example 1610] | > 1000 |
| COc1cc(CN(C)Cc2onc(-c3ccc(F)cc3)c2-c2nc(C(=O)NC(C)C)cs2)cc(OC)c1OC [Example 1611] | > 1000 |
| CC(C)NC(=O)c1csc(-c2c(-c3ccc(F)cc3)noc2CN(CCc2ccccc2)Cc2ccccc2)n1 [Example 1612] | > 1000 |
| CC(C)NC(=O)c1csc(-c2c(-c3ccc(F)cc3)noc2CN(C)C(Cc2ccccc2)c2ccccc2)n1 (centres unmarked) [Example 1614] | > 1000 |
| CC(C)NC(=O)c1csc(-c2c(-c3ccc(F)cc3)noc2CN2CCC(O)(c3ccc(Cl)cc3)CC2)n1 [Example 1615] | > 1000 |
| C#CCN(Cc1ccc(Cl)cc1Cl)Cc1onc(-c2ccc(F)cc2)c1-c1nc(C(=O)NC(C)C)cs1 [Example 1616] | > 1000 |
| CCN(Cc1onc(-c2ccc(F)cc2)c1-c1nc(C(=O)NC(C)C)cs1)C(Cc1ccccc1)c1ccco1 (centres unmarked) [Example 1617] | ≤ 1000 |
| CC(C)NC(=O)c1csc(-c2c(-c3ccc(F)cc3)noc2CN2CCN(C(=O)OC(C)(C)C)C[C@H]2CO)n1 [Example 1618] | > 1000 |
| CC(C)NC(=O)c1csc(-c2c(-c3ccc(F)cc3)noc2CN2CCN(c3ccc(C(C)(C)C)cc3)CC2)n1 [Example 1619] | > 1000 |
| COc1cc2c(cc1OC)CN(Cc1onc(-c3ccc(F)cc3)c1-c1nc(C(=O)NC(C)C)cs1)CC2 [Example 1621] | > 1000 |
| CC(C)NC(=O)c1csc(-c2c(-c3ccc(F)cc3)noc2CN2CCN(c3ccc(C(F)(F)F)cc3)CC2)n1 [Example 1622] | > 1000 |
| CC(C)NC(=O)c1csc(-c2c(-c3ccc(F)cc3)noc2CN2CCN(c3cccc(C(F)(F)F)c3)CC2)n1 [Example 1623] | > 1000 |
| CC(C)NC(=O)c1csc(-c2c(-c3ccc(F)cc3)noc2CN2CCN(c3ccc(Cl)c(Cl)c3)CC2)n1 [Example 1624] | > 1000 |
| CC(C)NC(=O)c1csc(-c2c(-c3ccc(F)cc3)noc2CN2CCN(c3ccc(C(F)(F)F)cn3)CC2)n1 [Example 1626] | > 1000 |
| CC(C)NC(=O)c1csc(-c2c(-c3ccc(F)cc3)noc2CN2CCN(c3ccccc3Cl)CC2)n1 [Example 1627] | > 1000 |
| COc1ccc(N2CCN(Cc3onc(-c4ccc(F)cc4)c3-c3nc(C(=O)NC(C)C)cs3)CC2)cc1OC [Example 1628] | > 1000 |
| CC(C)NC(=O)c1csc(-c2c(-c3ccc(F)cc3)noc2CN2CCCC(c3ccc(C(F)(F)F)cc3)C2)n1 (centres unmarked) [Example 1629] | > 1000 |
| COc1ccncc1NCc1onc(-c2ccc(F)cc2)c1-c1nc(C(=O)NC(C)C)cs1 [Example 1650] | > 1000 |
| CC(C)NC(=O)c1csc(-c2c(-c3ccc(F)cc3)noc2CNc2ccccc2C(C)C)n1 [Example 1657] | > 1000 |
| Cc1cc(C)c(NCc2onc(-c3ccc(F)cc3)c2-c2nc(C(=O)NC(C)C)cs2)c(C)c1 [Example 1661] | > 1000 |

Now from value to compound:

| IC50 [nM] | Compound |
| --- | --- |
| > 1000 | CC(C)NC(=O)c1csc(-c2c(-c3ccc(F)cc3)noc2CN2CCN(Cc3ccc4c(c3)OCO4)CC2)n1 [Example 1620] |
| > 1000 | CC(C)NC(=O)c1csc(-c2c(-c3ccc(F)cc3)noc2CNc2ccccc2)n1 [Example 1630] |
| > 1000 | Cc1cccc(NCc2onc(-c3ccc(F)cc3)c2-c2nc(C(=O)NC(C)C)cs2)c1 [Example 1631] |
| > 1000 | Cc1ccc(NCc2onc(-c3ccc(F)cc3)c2-c2nc(C(=O)NC(C)C)cs2)cc1 [Example 1632] |
| > 1000 | Cc1ccccc1NCc1onc(-c2ccc(F)cc2)c1-c1nc(C(=O)NC(C)C)cs1 [Example 1633] |
| > 1000 | Cc1ccc(NCc2onc(-c3ccc(F)cc3)c2-c2nc(C(=O)NC(C)C)cs2)nc1 [Example 1634] |
| > 1000 | Cc1cccc(NCc2onc(-c3ccc(F)cc3)c2-c2nc(C(=O)NC(C)C)cs2)n1 [Example 1635] |
| > 1000 | Cc1ccnc(NCc2onc(-c3ccc(F)cc3)c2-c2nc(C(=O)NC(C)C)cs2)c1 [Example 1636] |
| > 1000 | Cc1cccnc1NCc1onc(-c2ccc(F)cc2)c1-c1nc(C(=O)NC(C)C)cs1 [Example 1637] |
| > 1000 | CC(C)NC(=O)c1csc(-c2c(-c3ccc(F)cc3)noc2CNc2ccccc2F)n1 [Example 1638] |
| > 1000 | CC(C)NC(=O)c1csc(-c2c(-c3ccc(F)cc3)noc2CNc2ccc(F)cc2)n1 [Example 1639] |
| > 1000 | Cc1ccc(C)c(NCc2onc(-c3ccc(F)cc3)c2-c2nc(C(=O)NC(C)C)cs2)c1 [Example 1640] |
| > 1000 | Cc1ccc(NCc2onc(-c3ccc(F)cc3)c2-c2nc(C(=O)NC(C)C)cs2)cc1C [Example 1641] |
| > 1000 | CCc1ccccc1NCc1onc(-c2ccc(F)cc2)c1-c1nc(C(=O)NC(C)C)cs1 [Example 1642] |
| > 1000 | Cc1cccc(NCc2onc(-c3ccc(F)cc3)c2-c2nc(C(=O)NC(C)C)cs2)c1C [Example 1644] |
| > 1000 | Cc1ccc(NCc2onc(-c3ccc(F)cc3)c2-c2nc(C(=O)NC(C)C)cs2)c(C)c1 [Example 1645] |

| IC50 [nM] | Compound |
| --- | --- |
| > 1000 | Cc1cc(C)cc(NCc2onc(-c3ccc(F)cc3)c2-c2nc(C(=O)NC(C)C)cs2)c1 [Example 1646] |
| > 1000 | COc1cccc(NCc2onc(-c3ccc(F)cc3)c2-c2nc(C(=O)NC(C)C)cs2)c1 [Example 1647] |
| > 1000 | COc1ccc(NCc2onc(-c3ccc(F)cc3)c2-c2nc(C(=O)NC(C)C)cs2)cc1 [Example 1648] |
| > 1000 | COc1ccccc1NCc1onc(-c2ccc(F)cc2)c1-c1nc(C(=O)NC(C)C)cs1 [Example 1649] |
| > 1000 | Cc1ccc(NCc2onc(-c3ccc(F)cc3)c2-c2nc(C(=O)NC(C)C)cs2)cc1F [Example 1651] |
| > 1000 | Cc1c(F)cccc1NCc1onc(-c2ccc(F)cc2)c1-c1nc(C(=O)NC(C)C)cs1 [Example 1652] |
| > 1000 | CC(C)NC(=O)c1csc(-c2c(-c3ccc(F)cc3)noc2CNc2cc(F)cc(F)c2)n1 [Example 1653] |
| > 1000 | CC(C)NC(=O)c1csc(-c2c(-c3ccc(F)cc3)noc2CNc2ccc(F)cc2F)n1 [Example 1654] |
| > 1000 | CC(C)NC(=O)c1csc(-c2c(-c3ccc(F)cc3)noc2CNc2ccc3c(c2)CCC3)n1 [Example 1656] |
| ≤ 1000 | CC(=O)c1cccc(NCc2onc(-c3ccc(F)cc3)c2-c2nc(C(=O)NC(C)C)cs2)c1 [Example 1658] |
| > 1000 | CC(=O)c1ccc(NCc2onc(-c3ccc(F)cc3)c2-c2nc(C(=O)NC(C)C)cs2)cc1 [Example 1659] |
| > 1000 | CCc1cccc(C)c1NCc1onc(-c2ccc(F)cc2)c1-c1nc(C(=O)NC(C)C)cs1 [Example 1660] |
| > 1000 | CC(C)NC(=O)c1csc(-c2c(-c3ccc(F)cc3)noc2CNc2ccc3c(c2)OCO3)n1 [Example 1662] |
| > 1000 | COc1ccc(NCc2onc(-c3ccc(F)cc3)c2-c2nc(C(=O)NC(C)C)cs2)c(C)c1 [Example 1663] |
| > 1000 | CCOc1cccc(NCc2onc(-c3ccc(F)cc3)c2-c2nc(C(=O)NC(C)C)cs2)c1 [Example 1664] |
